# Results from patent US5185358A, “3-heteroatom containing urea and thiourea ACAT inhibitors” (Warner-Lambert Co., priority 1991, dated 1993).
# Tests used:
# [1] = molecular target: T1, acyl-CoA:cholesterol acyltransferase (ACAT) (Oryctolagus cuniculus, UniProt G1SFD9); assay: In vitro ACAT inhibition: radiolabeled cholesterol oleate formed from radiolabeled oleic acid in rabbit intestinal microsomes; assay type: biochemical; details: concentration required to inhibit 50% activity of the enzyme
# T1 sequence (G1SFD9 1-524): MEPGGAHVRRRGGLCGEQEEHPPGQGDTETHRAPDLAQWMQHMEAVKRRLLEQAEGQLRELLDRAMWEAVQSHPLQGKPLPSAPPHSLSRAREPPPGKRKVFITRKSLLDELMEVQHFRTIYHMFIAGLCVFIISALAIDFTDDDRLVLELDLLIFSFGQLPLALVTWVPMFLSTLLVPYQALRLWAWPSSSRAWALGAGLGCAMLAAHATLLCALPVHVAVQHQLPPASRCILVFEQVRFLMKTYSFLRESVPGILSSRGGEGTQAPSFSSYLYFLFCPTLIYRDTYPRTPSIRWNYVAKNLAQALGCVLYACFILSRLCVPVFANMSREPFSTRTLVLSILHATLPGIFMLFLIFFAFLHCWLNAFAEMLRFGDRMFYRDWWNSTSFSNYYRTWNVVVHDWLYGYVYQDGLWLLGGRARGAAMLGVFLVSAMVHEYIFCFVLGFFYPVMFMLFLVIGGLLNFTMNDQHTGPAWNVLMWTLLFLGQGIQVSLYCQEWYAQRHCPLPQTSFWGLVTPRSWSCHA
# Protocol: The ability of representative compounds of the present invention to inhibit ACAT was measured using an in vitro test more fully described by Field, F. J. and Salone, R. G., in Biochemica et Biophysica 712:557-570 (1982). The test assesses the ability of a test compound to inhibit the acylation of cholesterol by oleic acid by measuring the amount of radiolabeled cholesterol oleate formed from radiolabeled oleic acid in a tissue preparation containing rabbit intestinal microsomes.
# [2] = In vivo screen designated APCC: blood cholesterol in rats on chow supplemented with peanut oil, cholesterol and cholic acid; details: cholesterol in blood, male Sprague-Dawley rats, oral, 30 milligrams per kilogram, single dose 4 PM, blood samples 8 AM next day, vs vehicle control (CMC/Tween); for change in vivo at 30 mg/kg: Rattus norvegicus, 16 h, read-out: % Change (mg/dl)
# Excerpt: In one in vivo screen designated APCC, male Sprague-Dawley rats (200 to 225 g) were randomly divided into treatment groups and dosed orally at 4 PM with either vehicle (CMC/Tween) or suspensions of test compounds in vehicle. The control group received vehicle alone. Immediately after dosing, all animals received ad libitum a chow diet supplemented with peanut oil (5.5%), cholesterol (1.5%) and cholic acid (0.5%). The next day the animals were sacrificed at 8 AM to obtain blood samples for cholesterol analysis using standard procedures. Statistical differences between mean cholesterol values for the same vehicle were determined using analysis of variance followed by Fisher's least significant test. The compounds were administered at 30 milligrams per kilogram of body weight.
molecule,measurement,setting,value
"CCCCCCCCCCCc1nc(NC(=O)Nc2c(C(C)C)cccc2C(C)C)n(C(C)=O)n1 [Example 1, N-[2,6-bis(1-methylethyl)phenyl]-N'-(2-acetyl-5-undecyl-2H-1,2,4-triazol-3-yl)urea]",IC50,[1],> 5000 nM
same,change in vivo at 30 mg/kg,[2],-38%
"CCCCCCCCCCCc1nc(NC(=O)Nc2c(C(C)C)cccc2C(C)C)n[nH]1 [Example 2, N-[2,6-bis(1-methylethyl)phenyl]-N'-(5-undecyl-1H-1,2,4-triazol-3-yl)urea]",IC50,[1],> 5000 nM
same,change in vivo at 30 mg/kg,[2],-31%
"CCCCCCCCCCCCn1cnc(NC(=O)Nc2c(C(C)C)cccc2C(C)C)n1 [Example 11, N-[2,6-bis(1-methylethyl)phenyl]-N'-(1-dodecyl-1H-1,2,4-triazol-3-yl)urea]",IC50,[1],1500 nM
same,change in vivo at 30 mg/kg,[2],-30%
"Cc1nnc(NC(=O)Nc2c(C(C)C)cccc2C(C)C)s1 [Example 19, N-[2,6-bis(1-methylethyl)phenyl]-N'-(5-methyl-1,3,4-thiadiazol-2-yl)urea]",IC50,[1],> 5000 nM
"CCCCCCCCCCCc1nnc(NC(=O)Nc2c(C(C)C)cccc2C(C)C)s1 [Example 18, N-[2,6-bis(1-methylethyl)phenyl]-N'-(5-undecyl-1,3,4-thiadiazol-2-yl)urea]",IC50,[1],39 nM
same,change in vivo at 30 mg/kg,[2],-44%
"CCCCCCCCCCCCCc1nnc(NC(=O)Nc2c(C(C)C)cccc2C(C)C)o1 [Example 25, N-[2,6-bis(1-methylethyl)phenyl]-N'-(5-tridecyl-1,3,4-oxadiazol-2-yl)urea]",change in vivo at 30 mg/kg,[2],-62%
"CCCCCCCCCCCCCc1nc(NC(=O)Nc2c(C(C)C)cccc2C(C)C)no1 [Example 26, N-[2,6-bis(1-methylethyl)phenyl]-N'-[5-tridecyl-1,2,4-oxadiazol-3-yl]urea]",IC50,[1],7 nM
"CCCCCCCCCCCCCSc1nnc(NC(=O)Nc2c(C(C)C)cccc2C(C)C)n1C(C)=O [Example 14, 4-Acetyl-N-[[[2,6-bis(1-methylethyl)phenyl]amino]carbonyl]-5-(tridecylthio)-4H-1,2,4-triazol-3-amine]",change in vivo at 30 mg/kg,[2],-21%
"CCCCCCCCCCCn1cnnc1NC(=O)Nc1c(C(C)C)cccc1C(C)C [Example 9, N-[2,6-bis(1-methylethyl)phenyl]-N'(4-undecyl-1,2,4-triazol-3-yl)urea]",IC50,[1],670 nM
same,change in vivo at 30 mg/kg,[2],-21%
CCCCCCCCCCCCCCc1nc(NC(=O)Nc2c(C(C)C)cccc2C(C)C)n[nH]1 [Example 6],IC50,[1],> 5000 nM
same,change in vivo at 30 mg/kg,[2],-1%
"CCCCCCCCCCCCCSc1nnc(NC(=O)Nc2c(C(C)C)cccc2C(C)C)[nH]1 [Example 15, N-[[[2,6-Bis(1-methylethyl)phenyl]amino]carbonyl]-5-(tridecylthio)-4H-1,2,4-triazol-3-amine]",change in vivo at 30 mg/kg,[2],12%
CCCCCCCCCCCCCS(=O)(=O)c1nnc(NC(=O)Nc2c(C(C)C)cccc2C(C)C)[nH]1 [Example 17],change in vivo at 30 mg/kg,[2],-11%
"CCCCCCCCCCCCC[S+]([O-])c1nc(NC(=O)Nc2c(C(C)C)cccc2C(C)C)n[nH]1 (stereo not shown) [Example 16, N-[2,6-Bis(1-methylethyl)phenyl]-N'-[5-(tridecylsulfinyl)-1H-1,2,4-triazol-3-yl]urea]",change in vivo at 30 mg/kg,[2],-6%
"CCCCCCCCCCCn1cnc(NC(=O)Nc2c(C(C)C)cccc2C(C)C)n1 [Example 8, N-[2,6-bis(1-methylethyl)phenyl]-N-(1-undecyl-1,2,4-triazol-3-yl)urea]",IC50,[1],110 nM
same,change in vivo at 30 mg/kg,[2],-39%
"CCCCCCCCCCCCSc1nnc(NC(=O)Nc2c(C(C)C)cccc2C(C)C)n1C(C)=O [Example 13, 4-acetyl-N-[[[2,6-bis(1-methylethyl)phenyl]amino]carbonyl]-5-(dodecylthio)-4H-1,2,4-triazol-3-amine]",IC50,[1],600 nM
same,change in vivo at 30 mg/kg,[2],-41%
"CCCCCCCCCCCCCc1nnc(NC(=O)Nc2c(C(C)C)cccc2C(C)C)s1 [Example 22, N-[2,6-bis(1-methylethyl)phenyl]-N'-(5-tridecyl-1,3,4-thiadiazol-2-yl)urea]",change in vivo at 30 mg/kg,[2],-8%
CSc1nnc(NC(=O)Nc2c(C(C)C)cccc2C(C)C)[nH]1 [Example 27],IC50,[1],> 5000 nM
"CCCCCCCCCCCCn1cnnc1NC(=O)Nc1c(C(C)C)cccc1C(C)C [Example 12, N-[2,6-bis(1-methylethyl)phenyl]-N'-(4-dodecyl-4H-1,2,4-triazol-3-yl)urea]",change in vivo at 30 mg/kg,[2],-28%
"CCCCCCCCCCCCc1nnc(NC(=O)Nc2c(C(C)C)cccc2C(C)C)s1 [Example 23, N-[2,6-bis(1-methylethyl)phenyl]-N'-(5-dodecyl-1,3,4-thiadiazol-2-yl)urea]",IC50,[1],34 nM
same,change in vivo at 30 mg/kg,[2],-32%
"CCCCCCCCCCCn1ncnc1NC(=O)Nc1c(C(C)C)cccc1C(C)C [Example 7, N-[2,6-bis(1-methylethyl)phenyl]-N'-(2-undecyl-2H-1,2,4-triazol-3-yl)urea]",IC50,[1],140 nM
same,change in vivo at 30 mg/kg,[2],-38%
"N-[2,6-bis(1-methylethyl)phenyl]-N'-(2-dodecyl-1H-1,2,4-triazol-5-yl)urea [Example 10]",IC50,[1],250 nM
same,% Change (mg/dl),[2],-36%
"CCCCCCCCCCCCc1nc(NC(=O)Nc2c(C(C)C)cccc2C(C)C)n[nH]1 [Example 4, N-[2,6-bis(1-methylethyl)phenyl]-N'(5-dodecyl-1H-1,2,4-triazol-3-yl)urea]",change in vivo at 30 mg/kg,[2],12%
"CCCCCCCc1nnc(NC(=O)Nc2c(C(C)C)cccc2C(C)C)s1 [Example 20, N-[2,6-bis(1-methylethyl)phenyl]-N'-(5-heptyl-1,3,4-thiadiazol-2-yl)urea]",IC50,[1],400 nM
same,change in vivo at 30 mg/kg,[2],-25%
"CCCCCCCCCc1nnc(NC(=O)Nc2c(C(C)C)cccc2C(C)C)s1 [Example 21, N-[2,6-bis(1-methylethyl)phenyl]-N'-(5-nonyl-1,3,4-thiadiazol-2-yl)urea]",change in vivo at 30 mg/kg,[2],-45%
"CC(C)c1cccc(C(C)C)c1NC(=O)Nc1nc(-c2ccccc2)ns1 [Example 24, N-[2,6-Bis(1-methylethyl)phenyl]-N'-(3-phenyl-1,2,4-thiadiazol-5-yl)urea]",IC50,[1],> 5000 nM
